Test results: patent publication US8575203B2, “Chemical compounds” (Boehringer Ingelheim International GmbH, priority 2010, dated 2013)

Target: Recombinant human PDK1 enzyme (aa 52-556) (Homo sapiens (Human), UniProt O15530)
Assay: PDK1 kinase assay
Type: biochemical
Conditions: in vitro kinase assay, His6-PDK1 (aa 52-556), PDKtide, P33-ATP
Procedure: The activity of the compounds according to the invention on the kinase PDK1 which inhibits the signal transduction pathway is determined in an in vitro kinase assay with recombinantly prepared protein:
Recombinant human PDK1 enzyme (aa 52-556) linked at its N-terminal end to His6 is isolated from baculovirus-infected insect cells. Purified enzyme may be obtained for example from the University of Dundee, Scotland. The following components are combined in a well of a 96-well round-based dish (Greiner bio-one, No. 650101): • 15 μL of compound to be tested in varying concentrations (e.g. starting at 10 μM, and diluted in steps of 1:5) in APT buffer (50 mM Tris/Cl pH 7.5; 0.05% β-mercaptoethanol; 10 mM Mg-acetate; 0.0166% Tween 20; 3.33% DMSO) • 15 μL His6-PDK1 (aa 52-556) 3.33 ng/well) and PDKtide ([…]), synthesised by Pepceuticals Limited, Nottingham, United Kingdom; 25 μM final concentration); His6-PDK1 and PDKtide are together diluted accordingly in assay buffer (50 mM tris pH 7.5, 0.05% β-mercaptoethanol, 10 mM Mg-acetate); PDKtide is present in this mixture as an 83.3 μM solution. These 30 μl are routinely incubated for 30 min at RT. • 20 μL ATP solution (25 μM ATP with 1.0 μCi/well gamma-P33-ATP). The final concentration of Tween 20 is 0.005%.
The reaction is started by adding the ATP solution and the mixture is incubated for 90 min at RT. At the start of the reaction the dishes are shaken gently. The reaction is stopped by the addition of 50 μL/well of 500 mM phosphoric acid (H3PO4) and incubated for about 20 min at RT. The precipitate is transferred by harvesting onto filter plates (96-well microtitre filter plate: UniFilter GF/C; Perkin Elmer; No. 6005174), then washed 6 times with 50 mM H3PO4 and dried at 60° C. Then the plate is stuck down with sealing tape, 25 μL/well of scintillation solution (Microscint 0; Perkin Elmer; No. 6013611) are added and the amount of P33 precipitated is measured using the Wallac Betacounter. The measured data are evaluated using Graphpad Prism software.

Chain of Recombinant human PDK1 enzyme (aa 52-556) (O15530 52-556): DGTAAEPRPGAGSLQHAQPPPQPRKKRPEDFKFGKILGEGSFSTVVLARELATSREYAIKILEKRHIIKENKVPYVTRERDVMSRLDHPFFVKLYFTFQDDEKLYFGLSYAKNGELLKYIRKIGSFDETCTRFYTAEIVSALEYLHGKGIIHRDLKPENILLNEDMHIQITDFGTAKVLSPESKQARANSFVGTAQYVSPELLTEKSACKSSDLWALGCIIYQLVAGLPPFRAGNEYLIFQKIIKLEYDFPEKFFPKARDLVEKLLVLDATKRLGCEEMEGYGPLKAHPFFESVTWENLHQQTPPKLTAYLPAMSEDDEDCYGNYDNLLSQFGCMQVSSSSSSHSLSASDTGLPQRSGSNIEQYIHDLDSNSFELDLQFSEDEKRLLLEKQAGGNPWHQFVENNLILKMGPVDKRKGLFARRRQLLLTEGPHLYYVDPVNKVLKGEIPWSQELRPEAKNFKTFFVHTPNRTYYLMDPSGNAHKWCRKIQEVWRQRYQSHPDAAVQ

Row | Structure (SMILES) | IC50
1 | CNc1ncnc2cc(F)c(C#CCNC(=O)c3c(C)n(C)n(Cc4ccc(F)c(F)c4)c3=O)cc12 [I-6] | 68 nM
2 | CCN1CC[C@H](Nc2cnc3ccc(C#CCNC(=O)c4cncn(Cc5ccc(F)c(F)c5)c4=O)cc3n2)[C@H](F)C1 [I-47] | 4 nM
3 | CN(CCCO)c1ncnc2ccc(C#CCNC(=O)c3cccn(Cc4ccc(F)c(F)c4)c3=O)cc12 [II-34] | 59 nM
4 | CN(C)C(=O)CNc1ncnc2ccc(C#CCNC(=O)c3cccn(Cc4ccc(F)c(F)c4)c3=O)cc12 [II-50] | 182 nM
5 | CN1CCN(Nc2cnc3ccc(C#CCNC(=O)c4cncn(Cc5ccc(F)c(F)c5)c4=O)cc3n2)CC1 [I-36] | 87 nM
6 | COCCN1CCC(Nc2cnc3ccc(C#CCNC(=O)c4cccn([C@@H](C)c5ccc(F)c(F)c5)c4=O)cc3c2)CC1 [I-78] | 9 nM
7 | CCN(CC)c1ncnc2ccc(C#CCNC(=O)c3cccn([C@H](CO)c4ccccc4)c3=O)cc12 [II-56] | 6 nM
8 | O=C(NCC#Cc1ccc2ncnc(N3CCNCC3)c2c1)c1cncn(Cc2ccc(F)c(F)c2)c1=O [II-9] | 443 nM
9 | CN1CC[C@@H](COc2ccnc3ccc(C#CCNC(=O)c4cccn(Cc5cc(F)c(F)c(F)c5)c4=O)cc23)C1 [I-125.12] | 6 nM
10 | O=C(NCC#Cc1ccc2ncc(NC3CCN(CCO)CC3)nc2c1)c1cncn(Cc2ccc(F)c(F)c2)c1=O [I-9] | 3 nM
11 | N[C@H]1CC[C@H](Nc2cnc3ccc(C#CCNC(=O)c4cncn(Cc5ccc(F)c(F)c5)c4=O)cc3n2)CC1 [I-34] | 3 nM
12 | CN(C)CC(C)(C)COc1ccnc2ccc(C#CCNC(=O)c3cccn(Cc4ccc(F)c(F)c4)c3=O)cc12 [I-103] | 33 nM
13 | O=C(NCC#Cc1ccc2ncc(O)cc2c1)c1cncn(Cc2ccc(F)c(F)c2)c1=O [I-86] | 86 nM
14 | O=C(NCC#Cc1ccc2ncc(NC3CCN(C4CC4)CC3)nc2c1)c1cncn(Cc2ccc(F)c(F)c2)c1=O [I-23] | 8 nM
15 | NC(=O)[C@@H](Cc1ccccc1)Nc1ncnc2ccc(C#CCNC(=O)c3cncn(Cc4ccc(F)c(F)c4)c3=O)cc12 [II-17] | 488 nM
16 | O=C(NCC#Cc1ccc2nccc(C3=CCNCC3)c2c1)c1cncn(Cc2ccc(F)c(F)c2)c1=O [II-90] | 86 nM
17 | CCN1CCC(CN(C)c2ncnc3ccc(C#CCNC(=O)c4cccn(Cc5ccc(F)c(F)c5)c4=O)cc23)C1 (stereo not shown) [II-47] | 117 nM
18 | CON(C)c1ncnc2ccc(C#CCNC(=O)c3cncn(Cc4ccc(F)c(F)c4)c3=O)cc12 [II-62] | 16 nM
19 | CN(C)CCCOc1cnc2ccc(C#CCNC(=O)c3cncn(Cc4ccc(F)c(F)c4)c3=O)cc2n1 [I-17] | 95 nM
20 | CC(C)N(C)c1c(C#N)cnc2ccc(C#CCNC(=O)c3cccn(Cc4ccc(F)c(F)c4)c3=O)cc12 [II-101] | 148 nM
21 | CC(C)(C)COc1ccnc2ccc(C#CCNC(=O)c3cccn(C(CO)c4ccc(F)c(F)c4)c3=O)cc12 (stereo not shown) [I-125.14] | 60 nM
22 | CN1CC(NC(=O)c2cnc3ccc(C#CCNC(=O)c4cncn(Cc5ccc(F)c(F)c5)c4=O)cc3c2)C1 [II-81] | 20 nM

Row | Structure (SMILES) | IC50
23 | CCN1CCC(Nc2cnc3ccc(C#CCNC(=O)c4cccn([C@@H](C)c5ccc(F)c(F)c5)c4=O)cc3c2)CC1 [I-75] | 1 nM
24 | CN(C)CC(O)COc1ccnc2ccc(C#CCNC(=O)c3cccn(Cc4ccc(F)c(F)c4)c3=O)cc12 (stereo not shown) [I-105] | 47 nM
25 | CN(C)CCCN(C)c1cnc2ccc(C#CCNC(=O)c3cncn(Cc4ccc(F)c(F)c4)c3=O)cc2n1 [I-13] | 34 nM
26 | COc1ncnc2ccc(C#CCNC(=O)c3cncn(Cc4ccc(F)c(F)c4)c3=O)cc12 [I-2] | 37 nM
27 | CCN(CC)CCCOc1ccnc2ccc(C#CCNC(=O)c3cncn(Cc4ccc(F)c(F)c4)c3=O)cc12 [I-125.13] | 6 nM
28 | CC(=O)N[C@@H]1CCN(c2ncnc3ccc(C#CCNC(=O)c4cccn(Cc5ccc(F)c(F)c5)c4=O)cc23)C1 [II-30] | 21 nM
29 | O=C(NCC#Cc1ccc2nccc(OCC3CCNC3)c2c1)c1cncn(Cc2ccc(F)c(F)c2)c1=O (stereo not shown) [I-122] | 3 nM
30 | O=C(NCC#Cc1ccc2nccc(OC3CCNCC3)c2c1)c1cncn(Cc2ccc(F)c(F)c2)c1=O [I-113] | 15 nM
31 | N[C@H]1CC[C@@H](Nc2cnc3ccc(C#CCNC(=O)c4cncn(Cc5ccc(F)c(F)c5)c4=O)cc3n2)CC1 [I-33] | 40 nM
32 | CN(C)c1ncnc2ccc(C#CCNC(=O)c3cncn(Cc4ccc(F)c(F)c4)c3=O)cc12 [II-4] | 26 nM
33 | COCCN1CCN(C(=O)c2cnc3ccc(C#CCNC(=O)c4cncn(Cc5ccc(F)c(F)c5)c4=O)cc3c2)CC1 [II-85] | 1000 nM
34 | O=C(NCC#Cc1ccc2ncc(OC3CCNCC3)cc2c1)c1cncn(Cc2ccc(F)c(F)c2)c1=O [I-87] | 23 nM
35 | NC(=O)CNc1ncnc2ccc(C#CCNC(=O)c3cccn(Cc4ccc(F)c(F)c4)c3=O)cc12 [II-35] | 59 nM
36 | CN(C)CCNc1ncnc2ccc(C#CCNC(=O)c3cncn(Cc4ccc(F)c(F)c4)c3=O)cc12 [II-10] | 229 nM
37 | CN1CCC(Oc2cnc3ccc(C#CCNC(=O)c4cncn(Cc5ccc(F)c(F)c5)c4=O)cc3n2)CC1 [I-38] | 56 nM
38 | CCN1CCC(Nc2cnc3ccc(C#CCNC(=O)c4cccn([C@@H](CO)c5ccc(F)c(F)c5)c4=O)cc3n2)CC1 [I-50] | 1 nM
39 | CN(C)CCNc1ccnc2ccc(C#CCNC(=O)c3cccn(Cc4ccc(F)c(F)c4)c3=O)cc12 [I-118] | 853 nM
40 | CCN1CCC(Nc2cnc3ccc(C#CCNC(=O)c4cncn(Cc5ccc(F)c(F)c5)c4=O)cc3c2)CC1 [I-71] | 4 nM
41 | O=C(NCC#Cc1ccc2ncnc(NC3CCOCC3)c2c1)c1cncn(Cc2ccc(F)c(F)c2)c1=O [II-21] | 515 nM
42 | CC(CNc1ncnc2ccc(C#CCNC(=O)c3cncn(Cc4ccc(F)c(F)c4)c3=O)cc12)c1ccccc1 (stereo not shown) [II-15] | 445 nM
43 | CN(c1c(C#N)cnc2ccc(C#CCNC(=O)c3cccn(Cc4ccc(F)c(F)c4)c3=O)cc12)C1CCCCC1 [II-95] | 544 nM
44 | O=C(NCC#Cc1ccc2nccc(OCC3CCCOC3)c2c1)c1cccn(Cc2ccc(F)c(F)c2)c1=O (stereo not shown) [I-125.8] | 46 nM

Row | Structure (SMILES) | IC50
45 | CN(C)CCCOc1ccnc2ccc(C#CCNC(=O)c3cccn(Cc4cc(F)c(F)c(F)c4)c3=O)cc12 [I-125.2] | 5 nM
46 | O=C(NCC#Cc1ccc2nccc(OC[C@@H]3CCCNC3)c2c1)c1cccn(Cc2ccc(F)c(F)c2)c1=O [I-125.23] | 4 nM
47 | O=C(NCC#Cc1ccc2ncc(NC3CCN(C4COC4)CC3)nc2c1)c1cccn([C@H](CO)c2cccc(F)c2)c1=O [I-63] | 4 nM
48 | CN(c1ccccc1)c1ncnc2ccc(C#CCNC(=O)c3cncn(Cc4ccc(F)c(F)c4)c3=O)cc12 [II-48] | 15 nM
49 | COCCN1CCC(Nc2cnc3ccc(C#CCNC(=O)c4cccn(Cc5ccc(F)c(F)c5)c4=O)cc3c2)CC1 [I-74] | 8 nM
50 | CN(C)CCCN(C)c1ccnc2ccc(C#CCNC(=O)c3cncn(Cc4ccc(F)c(F)c4)c3=O)cc12 [I-89] | 23 nM
51 | COc1ccnc2ccc(C#CCNC(=O)c3cncn(Cc4ccc(F)c(F)c4)c3=O)cc12 [I-91] | 38 nM
52 | CN1CCC(NC(=O)c2cnc3ccc(C#CCNC(=O)c4cncn(Cc5ccc(F)c(F)c5)c4=O)cc3c2)CC1 [II-74] | 12 nM
53 | CNc1ncnc2cc(Cl)c(C#CCNC(=O)c3cncn(Cc4ccc(F)c(F)c4)c3=O)cc12 [I-5] | 229 nM
54 | CN1CCC(Nc2cnc3ccc(C#CCNC(=O)c4cccn([C@H](CO)c5ccccc5)c4=O)cc3n2)CC1 [I-32] | 8 nM
55 | CN1CCC(Oc2ccnc3ccc(C#CCNC(=O)c4cccn(Cc5ccc(F)c(F)c5)c4=O)cc23)CC1 [I-112] | 71 nM
56 | C=C(C)c1cnc2ccc(C#CCNC(=O)c3cncn(Cc4ccc(F)c(F)c4)c3=O)cc2n1 [I-69] | 64 nM
57 | COc1ccc(CN(C)c2ncnc3ccc(C#CCNC(=O)c4cccn(Cc5ccc(F)c(F)c5)c4=O)cc23)cc1 [II-52] | 6 nM
58 | CN1CC[C@H](COc2ccnc3ccc(C#CCNC(=O)c4cccn(Cc5cc(F)c(F)c(F)c5)c4=O)cc23)C1 [I-125.9] | 2 nM
59 | O=C(NC1CC1)c1cnc2ccc(C#CCNC(=O)c3cncn(Cc4ccc(F)c(F)c4)c3=O)cc2c1 [II-73] | 31 nM
60 | O=C(NCC#Cc1ccc2nccc(OCC3CCOCC3)c2c1)c1cncn(Cc2ccc(F)c(F)c2)c1=O [I-125.6] | 26 nM
61 | CNc1ncnc2ccc(C#CCNC(=O)c3cccn(Cc4ccoc4)c3=O)cc12 [II-51] | 770 nM
62 | O=C(NCC#Cc1ccc2ncc(N[C@H]3CC[C@H](N4CCN(CC5CC5)CC4)CC3)nc2c1)c1cccn([C@H](CO)c2cccc(F)c2)c1=O [I-61] | 2 nM
63 | CNc1c(C#N)cnc2ccc(C#CCNC(=O)c3cccn(Cc4ccc(F)c(F)c4)c3=O)cc12 [II-105] | 46 nM
64 | CN(C)CCOc1ccnc2ccc(C#CCNC(=O)c3cccn(Cc4ccc(F)c(F)c4)c3=O)cc12 [I-98] | 25 nM
